Data published in US20250205211A1, “TYK2 INHIBITORS AND USES THEREOF” (Alumis Inc., priority 2022, published 2025).

Test: FIH study: single doses and seven-day courses of Compound A in healthy participants (safety, pharmacokinetics)
Format: in vivo, human
[1] = single dose 100 mg, FIH study, mean

[2H]C([2H])([2H])CC(=O)c1cnc(NC(=O)C2CC2)cc1Nc1cccc(-c2ncn(C([2H])([2H])[2H])n2)c1OC [Compound A, N-(4-((2-Methoxy-3-(1-(methyl-d3)-1H-1,2,4-triazol-3-yl)phenyl)amino)-5-(propanoyl-3,3,3-d3)pyridin-2-yl)cyclopropanecarboxamide]
AUC (human, in vivo, oral, seven-day course, 40 mg q12h, read-out: mean AUC from time 0 to 12 hours at steady state [AUCo-12,ss]): 3620 ng·h/mL | Cmax (human, in vivo, oral, single dose 100 mg, FIH study, highest individual value): 1160 ng/mL | AUC(0-inf) (human, in vivo, oral, single dose 100 mg, FIH study, highest individual value, read-out: AUC0-inf highest value): 13700 ng·h/mL | mean Cmax at steady state [Cmax,ss] (seven-day course, 40 mg q12h): 433 ng/mL | tolerability of seven-day courses (seven-day courses of up to 40 mg q12h): well tolerated | AUC0-inf averaged [1]: 11,286 ng*h/mL | Cmax averaged [1]: 949 ng/mL | safety of single doses (single doses of up to 100 mg): without clinically significant safety concerns
